One assay addresses human Gal-3 (hGal-3) (Homo sapiens (Human), UniProt P17931). The assay is described as follows: Competitive binding assay: biotinylated hGal-3 binding to microplate-adsorbed asialofetuin (ASF). To be noted: Activity on hGal-3; binding of biotinylated hGal-3 to ASF-coated plates; mean values. The method, then:
(§1) Evaluation of Compound Inhibitory Activity (IC50)
The inhibitory activity of compounds is determined in competitive binding assays. […] Alternatively, and preferably, a human Gal-1 version in which all six cysteines are substituted by serines may be used.
Briefly, compounds are serially diluted in DMSO (working dilutions).
Plates are incubated for 3 hours at 4° C. then washed with cold assay buffer (3×50 uL), incubated for 1 hour with 25 μL/well of a streptavidin-peroxidases solution (diluted in assay buffer to 80 ng/mL) at 4° C., followed by further washing steps with assay buffer (3×50 uL). Finally, 25 μL/well of ABTS substrate is added.
(§2) The calculated IC50 values may fluctuate depending on the daily assay performance. Fluctuations of this kind are known to those skilled in the art. IC50 values from several measurements are given as mean values.

The target in the next assay is human Gal-1 (hGal-1). In words: Competitive binding assay: biotinylated hGal-1 binding to microplate-adsorbed asialofetuin (ASF). To be noted: Activity on hGal-1; binding of biotinylated hGal-1 to ASF-coated plates; mean values. The method, then:
as §1
The inhibitory activity of compounds is determined in competitive binding assays. This spectrophotometric assay measures the binding of biotinylated human Gal-3 (hGal-3) or human Gal-1 (hGAl-1), respectively, to a microplate-adsorbed glycoprotein, asialofetuin (ASF) (Proc Natl Acad Sci USA. 2013 Mar. 26; 110(13):5052-7.). Alternatively, and preferably, a human Gal-1 version in which all six cysteines are substituted by serines may be used.
Briefly, compounds are serially diluted in DMSO (working dilutions). ASF-coated 384 well pates are supplemented with 22.8 μL/well of biotinylated hGal-3 or hGal-1 in assay buffer (i.e. 300-1000 ng/mL biotinylated hGal-3 or hGal-1) to which 1.2 μL of compound working dilutions are added and mixed.
Plates are incubated for 3 hours at 4° C. then washed with cold assay buffer (3×50 uL), incubated for 1 hour with 25 μL/well of a streptavidin-peroxidases solution (diluted in assay buffer to 80 ng/mL) at 4° C., followed by further washing steps with assay buffer (3×50 uL). Finally, 25 μL/well of ABTS substrate is added. OD (410 nm) is recorded after 30 to 45 min and IC50 values are calculated.
as §2

pIC50: −log10 of the molar value.

Sequence of human Gal-3 (hGal-3) (P17931 whole entry): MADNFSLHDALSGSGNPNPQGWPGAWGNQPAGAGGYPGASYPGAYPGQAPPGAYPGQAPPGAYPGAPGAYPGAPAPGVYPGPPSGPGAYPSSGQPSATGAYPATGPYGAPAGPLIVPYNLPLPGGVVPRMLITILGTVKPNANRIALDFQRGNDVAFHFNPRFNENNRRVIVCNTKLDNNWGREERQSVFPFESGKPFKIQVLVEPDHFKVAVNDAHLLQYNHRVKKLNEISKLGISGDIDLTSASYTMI
Sequence of human Gal-1 (hGal-1) (P09382 2-135 limits assumed): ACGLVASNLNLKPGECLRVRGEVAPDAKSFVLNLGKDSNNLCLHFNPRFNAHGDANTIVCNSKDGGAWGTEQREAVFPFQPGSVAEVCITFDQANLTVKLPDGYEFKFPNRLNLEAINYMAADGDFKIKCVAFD

As usually defined, the pIC50 is the negative decadic logarithm of the IC50, by convention in mol/L. Low readings indicate a large IC50, high ones a small IC50. On to `CO[C@@H]1[C@@H](n2cc(-c3cc(F)c(F)c(F)c3)nn2)[C@@H](O)[C@@H](CO)O[C@H]1C(=O)N(Cc1nc[nH]c1C)[C@H]1CCCC[C@@H]1O` [Example 30, (2R,3R,4S,5R,6R)-5-hydroxy-N-((1S,2S)-2-hydroxycyclohexyl)-6-(hydroxymethyl)-3-methoxy-N-((5-methyl-1H-imidazol-4-yl)methyl)-4-(4-(3,4,5-trifluorophenyl)-1H-1,2,3-triazol-1-yl)tetrahydro-2H-pyran-2-carboxamide], for which the pIC50 on human Gal-3 (hGal-3) was 6.24; at human Gal-1 (hGal-1), 4.98.

With `CO[C@@H]1[C@@H](n2cc(-c3cc(F)c(F)c(F)c3)nn2)[C@@H](O)[C@@H](CO)O[C@H]1C(=O)N(Cc1sncc1Cl)[C@H]1CCCC[C@@H]1O` [Example 31, (2R,3R,4S,5R,6R)-N-((4-chloroisothiazol-5-yl)methyl)-5-hydroxy-N-((1S,2S)-2-hydroxycyclohexyl)-6-(hydroxymethyl)-3-methoxy-4-(4-(3,4,5-trifluorophenyl)-1H-1,2,3-triazol-1-yl)tetrahydro-2H-pyran-2-carboxamide], the pIC50 was 6.51 on human Gal-3 (hGal-3) and 5.83 at human Gal-1 (hGal-1).

For `CO[C@@H]1[C@@H](n2cc(-c3cc(F)c(F)c(F)c3)nn2)[C@@H](O)[C@@H](CO)O[C@H]1C(=O)N(Cc1ccnn1C)[C@H]1CCCC[C@@H]1O` [Example 32], the negative-log IC50 (pIC50) is 6.91 on human Gal-3 (hGal-3) and 6.04 at human Gal-1 (hGal-1).

On to `CO[C@@H]1[C@@H](n2cc(-c3cc(F)c(F)c(F)c3)nn2)[C@@H](O)[C@@H](CO)O[C@H]1C(=O)N(Cc1sccc1C)[C@H]1CCCC[C@@H]1O` [Example 33, (2R,3R,4S,5R,6R)-5-hydroxy-N-((1S,2S)-2-hydroxycyclohexyl)-6-(hydroxymethyl)-3-methoxy-N-((3-methylthiophen-2-yl)methyl)-4-(4-(3,4,5-trifluorophenyl)-1H-1,2,3-triazol-1-yl)tetrahydro-2H-pyran-2-carboxamide], for which the pIC50 on human Gal-3 (hGal-3) is 6.90; on human Gal-1 (hGal-1), 6.02.

As to `CO[C@@H]1[C@@H](n2cc(-c3cc(F)c(F)c(F)c3)nn2)[C@@H](O)[C@@H](CO)O[C@H]1C(=O)N(Cc1sccc1C)[C@H]1CCCC[C@@H]1O` [Example 34], the pIC50 at human Gal-3 (hGal-3) is 7.16; on human Gal-1 (hGal-1), 6.06.

Regarding `CO[C@@H]1[C@@H](n2cc(-c3cc(F)c(F)c(F)c3)nn2)[C@@H](O)[C@@H](CO)O[C@H]1C(=O)N(Cc1sccc1Cl)[C@H]1CCCC[C@@H]1O` [Example 35, (2R,3R,4S,5R,6R)-N-((3-chlorothiophen-2-yl)methyl)-5-hydroxy-N-((1S,2S)-2-hydroxycyclohexyl)-6-(hydroxymethyl)-3-methoxy-4-(4-(3,4,5-trifluorophenyl)-1H-1,2,3-triazol-1-yl)tetrahydro-2H-pyran-2-carboxamide], the pIC50 at human Gal-3 (hGal-3) was 6.68; on human Gal-1 (hGal-1), 5.79.

Take `CO[C@@H]1[C@@H](n2cc(-c3cc(F)c(F)c(F)c3)nn2)[C@@H](O)[C@@H](CO)O[C@H]1C(=O)N(Cc1scnc1C)[C@H]1CCCC[C@@H]1O` [Example 36, (2R,3R,4S,5R,6R)-5-hydroxy-N-((1S,2S)-2-hydroxycyclohexyl)-6-(hydroxymethyl)-3-methoxy-N-((4-methylthiazol-5-yl)methyl)-4-(4-(3,4,5-trifluorophenyl)-1H-1,2,3-triazol-1-yl)tetrahydro-2H-pyran-2-carboxamide]: the pIC50 is 6.64 at human Gal-3 (hGal-3) and 5.99 on human Gal-1 (hGal-1).

With `CO[C@@H]1[C@@H](n2cc(-c3cc(F)c(F)c(F)c3)nn2)[C@@H](O)[C@@H](CO)O[C@H]1C(=O)N(Cc1nccn1C)[C@H]1CCCC[C@@H]1O` [Example 37, (2R,3R,4S,5R,6R)-5-hydroxy-N-((1S,2S)-2-hydroxycyclohexyl)-6-(hydroxymethyl)-3-methoxy-N-((1-methyl-1H-imidazol-2-yl)methyl)-4-(4-(3,4,5-trifluorophenyl)-1H-1,2,3-triazol-1-yl)tetrahydro-2H-pyran-2-carboxamide], the pIC50 was 6.47 on human Gal-3 (hGal-3) and 5.24 on human Gal-1 (hGal-1).

`CO[C@@H]1[C@@H](n2cc(-c3cc(F)c(F)c(F)c3)nn2)[C@@H](O)[C@@H](CO)O[C@H]1C(=O)N(Cc1ccsc1C)[C@H]1CCCC[C@@H]1O` [Example 38, (2R,3R,4S,5R,6R)-5-hydroxy-N-((1S,2S)-2-hydroxycyclohexyl)-6-(hydroxymethyl)-3-methoxy-N-((2-methylthiophen-3-yl)methyl)-4-(4-(3,4,5-trifluorophenyl)-1H-1,2,3-triazol-1-yl)tetrahydro-2H-pyran-2-carboxamide]: the pIC50 at human Gal-3 (hGal-3) was 6.68; on human Gal-1 (hGal-1) it was 5.77.

As to `COc1ccccc1CN(C(=O)[C@@H]1O[C@H](CO)[C@H](O)[C@H](n2cc(-c3cc(F)c(F)c(F)c3)nn2)[C@H]1OC)[C@H]1CCCC[C@@H]1O` [Example 39, (2R,3R,4S,5R,6R)-5-hydroxy-N-((1S,2S)-2-hydroxycyclohexyl)-6-(hydroxymethyl)-3-methoxy-N-(2-methoxybenzyl)-4-(4-(3,4,5-trifluorophenyl)-1H-1,2,3-triazol-1-yl)tetrahydro-2H-pyran-2-carboxamide], the pIC50 on human Gal-3 (hGal-3) is 6.65; at human Gal-1 (hGal-1), 5.53.

Regarding `COc1cccc(OC)c1CN(C(=O)[C@@H]1O[C@H](CO)[C@H](O)[C@H](n2cc(-c3cc(F)c(F)c(F)c3)nn2)[C@H]1OC)[C@H]1CCCC[C@@H]1O` [Example 40, (2R,3R,4S,5R,6R)-N-(2,6-dimethoxybenzyl)-5-hydroxy-N-((1S,2S)-2-hydroxycyclohexyl)-6-(hydroxymethyl)-3-methoxy-4-(4-(3,4,5-trifluorophenyl)-1H-1,2,3-triazol-1-yl)tetrahydro-2H-pyran-2-carboxamide], the pIC50 was 6.70 on human Gal-3 (hGal-3) and 5.33 at human Gal-1 (hGal-1).

Consider `Cn1ccnc1CN(C(=O)[C@@H]1O[C@H](CO)[C@H](O)[C@H](n2cc(-c3cc(F)c(F)c(F)c3)nn2)[C@H]1O)[C@H]1CCCC[C@@H]1O` [Example 41, (2R,3R,4S,5R,6R)-3,5-dihydroxy-N-((1S,2S)-2-hydroxycyclohexyl)-6-(hydroxymethyl)-N-((1-methyl-1H-imidazol-2-yl)methyl)-4-(4-(3,4,5-trifluorophenyl)-1H-1,2,3-triazol-1-yl)tetrahydro-2H-pyran-2-carboxamide], for which the pIC50 is 6.33 at human Gal-3 (hGal-3) and 4.91 at human Gal-1 (hGal-1).

As for `CC(=O)O[C@@H]1[C@@H](n2cc(-c3cc(F)c(F)c(F)c3)nn2)[C@@H](O)[C@@H](CO)O[C@H]1C(=O)N(Cc1nccn1C)[C@H]1CCCC[C@@H]1O` [Example 42], the figures for the pIC50 on human Gal-3 (hGal-3) and on human Gal-1 (hGal-1) were 6.67 and 4.46, respectively.

Take `CC(=O)O[C@@H]1[C@@H](n2cc(-c3cc(F)c(F)c(F)c3)nn2)[C@@H](O)[C@@H](CO)O[C@H]1C(=O)N(Cc1ccnn1C)[C@H]1CCCC[C@@H]1O` [Example 43, (2R,3R,4S,5R,6R)-5-hydroxy-2-(((1S,2S)-2-hydroxycyclohexyl)((1-methyl-1H-pyrazol-5-yl)methyl)carbamoyl)-6-(hydroxymethyl)-4-(4-(3,4,5-trifluorophenyl)-1H-1,2,3-triazol-1-yl)tetrahydro-2H-pyran-3-yl acetate]: the negative-log IC50 (pIC50) at human Gal-3 (hGal-3) was 7.12; on human Gal-1 (hGal-1) it was 5.57.

Turning to `CCn1nccc1CN(C(=O)[C@@H]1O[C@H](CO)[C@H](O)[C@H](n2cc(-c3cc(F)c(F)c(F)c3)nn2)[C@H]1OC)[C@H]1CCCC[C@@H]1O` [Example 44, (2R,3R,4S,5R,6R)-N-((1-ethyl-1H-pyrazol-5-yl)methyl)-5-hydroxy-N-((1S,2S)-2-hydroxycyclohexyl)-6-(hydroxymethyl)-3-methoxy-4-(4-(3,4,5-trifluorophenyl)-1H-1,2,3-triazol-1-yl)tetrahydro-2H-pyran-2-carboxamide], the results for the pIC50 on human Gal-3 (hGal-3) and at human Gal-1 (hGal-1) were 6.75 and 6.01, respectively.

Take `CO[C@@H]1[C@@H](n2cc(-c3cc(F)c(F)c(F)c3)nn2)[C@@H](O)[C@@H](CO)O[C@H]1C(=O)N(Cc1ccnn1C(C)C)[C@H]1CCCC[C@@H]1O` [Example 45, (2R,3R,4S,5R,6R)-5-hydroxy-N-((1S,2S)-2-hydroxycyclohexyl)-6-(hydroxymethyl)-N-((1-isopropyl-1H-pyrazol-5-yl)methyl)-3-methoxy-4-(4-(3,4,5-trifluorophenyl)-1H-1,2,3-triazol-1-yl)tetrahydro-2H-pyran-2-carboxamide]: the negative-log IC50 (pIC50) was 6.38 on human Gal-3 (hGal-3) and 5.84 at human Gal-1 (hGal-1).

For the molecule `CO[C@@H]1[C@@H](n2cc(-c3cc(F)c(F)c(F)c3)nn2)[C@@H](O)[C@@H](CO)O[C@H]1C(=O)N(Cc1ccnn1CC1CC1)[C@H]1CCCC[C@@H]1O` [Example 46, (2R,3R,4S,5R,6R)-N-((1-(cyclopropylmethyl)-1H-pyrazol-5-yl)methyl)-5-hydroxy-N-((1S,2S)-2-hydroxycyclohexyl)-6-(hydroxymethyl)-3-methoxy-4-(4-(3,4,5-trifluorophenyl)-1H-1,2,3-triazol-1-yl)tetrahydro-2H-pyran-2-carboxamide], the pIC50 at human Gal-3 (hGal-3) was 6.80; on human Gal-1 (hGal-1) it was 6.30.

These data come from patent publication US12291519B2, “2-hydroxycycloalkane-1-carbamoyl” (Idorsia Pharmaceuticals Ltd, priority 2019, dated 2025).
